Reference: PMC6894747 (PLoS Pathogens, 2019)
Positions of bridges follow the written chain, without caps; N, C: chain ends. Residues, ends and D or L forms follow the SMILES beside them. No end group written: not given here.

Experiments:
rhesus monkey IgG = experiment: Isothermal titration calorimetry (ITC); assay type: binding; settings: 300 μM peptide injected into 30 μM rhesus monkey IgG, PBS, 25 °C
Protocol: ITC assay was performed with an ITC microcalorimeter instrument (NANO ITC, TA Instruments, Lindon, UT) as described previously. In brief, 300 μM peptides were dissolved in PBS and injected into the chamber containing 30 μM of rhesus monkey IgG. The experiments were carried out at 25 °C. The time between injections was 300 s, and the stirring speed was 300 rpm. The heats of dilution were determined in control experiments by injecting peptides into PBS and then subtracting from the heats produced in the corresponding peptide-IgG binding experiments. Data acquisition and analysis were performed using the Origin software, and the best fitting curves were generated with GraphPad Prism.

M7 cells = experiment: Cytotoxicity assay (CCK-8); assay type: cell-based; settings: up to 5 μM, 48 h, triplicate
Protocol: (§1) The potential cytotoxicity of peptides on MT-2 and M7 cells was measured by using the Cell Counting Kit-8 according to the manufacturer’s instructions (CCK-8, Dojindo Laboratories, Kumamoto, Japan). Briefly, 100 μL of a peptide at graded concentrations were added to equal volumes of cells (10^4 cells/well) in a 96-well plate. Cell viability was evaluated using the CCK-8 kit after incubation at 37 °C for 2 days. Incubation with CCK-8 reagents at 37 °C for another 4 h, the absorbance at 450 nm was measured with an ELISA reader, and the percentage of cytotoxicity was calculated.

MT-2 cells = experiment: Cytotoxicity assay (CCK-8); assay type: cell-based; settings: for in vitro cytotoxicity to MT-2 cells: up to 5 μM, 48 h, CCK-8, triplicate
Protocol: as §1

HIV-1 JR-CSF = experiment: Prophylactic efficacy against HIV-1 challenge in humanized mice; assay type: in vivo, humanized NRG (NRG-hu HSC) mice; settings: for cell-associated HIV-1 DNA and RNA in spleen and bone marrow: day 28 post-infection, real-time PCR; for mice HIV-1 viremia-positive at 7 dpi / mice with viremia at 14 dpi / viral load at 7 dpi: humanized mice; for mice HIV-1 viremia-positive at 7 dpi: 20 mg/kg i.p. 2 h before challenge, 6 h post-infection and daily for 3 days, CP24 n = 8, IBP-CP24 n = 7; for mice with viremia at 14 dpi / viral load at 7 dpi: 20 mg/kg i.p. prophylactic regimen; for viral load at 7 dpi: plasma HIV-1 RNA
Protocol: The mice were challenged with HIV-1 JR-CSF (5 ng p24/mouse) through retro-orbital injection at 2 h post-treatment. Then the mice were treated with PBS or peptides at 6 hours post-infection and once every day for 3 consecutive days. Plasma samples were obtained for viral load determination at days 0, 7, 14, 21 and 28 post-infection.
HIV-1 genomic RNA was purified from plasma by using the QIAamp Viral RNA Mini Kit. The RNA was reverse-transcribed and quantitatively detected by real-time PCR with the TaqMan Fast Virus 1-Step PCR kit (Thermo Fisher Scientific). We used the forward primer 5’-[…]-3’ and the reverse primer 5’-[…]-3’ to detect the HIV gag gene. The probe (FAM-[…]-QSY7) used for detection was ordered from Applied Biosystems, and the reactions were set up following the manufacturer’s guidelines and were run on the QuantStudio 6 Flex PCR system (Applied Biosystems). The limit of detection of each real-time PCR was 4 copies per reaction. Accordingly, owing to the relatively small volume of plasma in mice (about 50–100 μL total blood), the limit of detection was 400 copies/mL plasma. The copy numbers below the detectable limit were set as 1. Triplicate reactions were performed for each sample.
To evaluate cell-associated HIV-1 DNA, total DNA was extracted from mouse spleen and bone marrow cells using the DNeasy Mini Kit (Qiagen). HIV-1 DNA was quantified by real-time PCR. DNA from serial dilutions of ACH2 cells, which contain 1 copy of the HIV genome in each cell, was used to create a standard curve.
To detect cell-associated HIV-1 RNA, total cell RNA was extracted from mouse spleen and bone marrow cells using the RNeasy Plus Mini Kit (Qiagen). The RNA was reverse-transcribed to cDNA and then quantified by real-time PCR, as described above. DNA from serial dilutions of ACH2 cells was used to generate a standard curve.

[1] = tested on: H9/HIV-1IIIB target cells with PBMC effector cells; experiment: ADCC assay, 10E8-mediated lysis; assay type: cell-based, human; settings: peptide up to 20 μM added to 10E8
Protocol: H9/HIV-1IIIB cells expressing HIV-1 Env (2.5 × 10^4 cells) as the target cells were seeded into a 96-well plate (25 μL/well), and the mixture of a serially diluted inhibitors and 10E8 (1.5 μg/mL) was added to the culture plate. PBMC (AllCells) as effector cells (2.5 × 10^4 cells in 25 μL) were cocultured with the mixture-treated target cells at 37 °C overnight, and the […] activity was measured using the CytoTox-ONE Homogeneous Membrane Integrity Assay (Promega).

human IgG = experiment: ELISA binding to human IgG; settings: for binding to human IgG: ELISA, dose-dependent, triplicate
Protocol: Next, different concentrations of human or rhesus monkey IgG were added to the peptide-coated plate and incubated at 37 °C for 1 h. Rabbit anti-human IgG-HRP (1:3000 diluted) was added to each well and incubated at 37 °C for another 1 h. Afterwards, the bound IgG-HRP was detected by addition of the HRP substrate TMB. The reaction was terminated by addition of 1 M H2SO4 50 μL. Absorbance at 450 nm was measured using an ELISA reader (Ultra 384; Tecan, Research Triangle Park, NC).
The data was fitted to the “one site – specific binding” using GraphPad Prism. The standard error (SE) is given for a sample size of three replicates per data point.

ICR mice = experiment: Safety of IBP-CP24 for ICR mice; assay type: in vivo; settings: for serum ALT level / serum creatinine level: i.p., CP24 10 mg/kg, IBP-CP24 10 or 100 mg/kg, before and 5 h, 1, 4 days post-injection
Protocol: Body weight changes of mice at different time points were monitored. Creatinine and ALT in the sera were measured by using the creatinine and ALT assay kits (NJJCBIO, Nanjing, China) before injection and 5 h, 1, and 4 days post-injection, respectively. All mice were sacrificed at day 15 post-injection, and the livers and kidneys were collected for haematoxylin and eosin (H&E) staining.

in vivo = experiment: in vivo
Protocol: The samples were then centrifuged (3200 rpm for 10 min at 4 °C), and plasma was aliquoted and kept frozen until analysis.
After being coated, the plate was washed three times with PBS-T to remove the excess antibody. The remaining active sites on the plate were blocked by the addition of 150 μL 2% milk for 2 h at 37 °C. […] Then, HRP-labeled rabbit anti-mouse IgG (Sigma, USA) incubated at 37 °C for 1 h. The substrate TMB reagent were added and incubated for 5 min, resulting in the development of a blue color. Color development was stopped by the stop solution (1M H2SO4 50 μL/well). Absorbance at 450 nm was determined by an ELISA reader (Ultra 384, Tecan; Tecan, Research Triangle Park, NC).

[2] = rhesus monkey, plasma, iv, 10 mg/kg

| Compound | Kd (rhesus monkey IgG) [µM] | in vitro cytotoxicity to M7 cells (M7 cells) | in vitro cytotoxicity to MT-2 cells (MT-2 cells) | cell-associated HIV-1 DNA and RNA in spleen and bone marrow (HIV-1 JR-CSF) | mice HIV-1 viremia-positive at 7 dpi (HIV-1 JR-CSF) [%] | mice with viremia at 14 dpi (HIV-1 JR-CSF) [%] | viral load at 7 dpi (HIV-1 JR-CSF) | effect on 10E8-mediated lytic activity [1] | binding to human IgG (human IgG) | serum ALT level (ICR mice; versus PBS) | serum creatinine level (ICR mice; versus PBS) | AUC(0-t) (in vivo; [2]) [µg·h/mL] | Cmax (in vivo; [2]) [ng/mL] | MRT (in vivo; [2]) [h] | half-life (in vivo; [2]) [h] | further results |
| --- | --- | --- | --- | --- | --- | --- | --- | --- | --- | --- | --- | --- | --- | --- | --- | --- |
| CC[C@H](C)[C@H](NC(=O)[C@H](CC(C)C)NC(=O)[C@H](CCC(=O)O)NC(=O)[C@H](CCC(=O)O)NC(=O)[C@@H](NC(=O)[C@H](CCCCN)NC(=O)[C@H](CCCCN)NC(=O)[C@@H](NC(=O)[C@H](Cc1ccc(O)cc1)NC(=O)[C@H](CCC(=O)O)NC(=O)[C@H](CCC(=O)O)NC(=O)[C@@H](NC(=O)[C@H](CCCCN)NC(=O)[C@H](CCCCN)NC(=O)[C@H](CC(=O)O)NC(=O)[C@H](Cc1c[nH]c2ccccc12)NC(=O)[C@H](CCC(=O)O)NC(=O)[C@H](CCC(=O)O)NC(=O)[C@H](Cc1c[nH]c2ccccc12)NC(=O)[C@@H](NC(=O)[C@H](CCSC)NC(=O)[C@@H](NC(=O)[C@@H]1CSSC[C@H](NC(=O)[C@@H](N)CC(=O)O)C(=O)N[C@@H](C)C(=O)N[C@@H](Cc2c[nH]c3ccccc23)C(=O)N[C@@H](Cc2c[nH]cn2)C(=O)N[C@@H](CC(C)C)C(=O)NCC(=O)N[C@@H](CCC(=O)O)C(=O)N[C@@H](CC(C)C)C(=O)N[C@@H](C(C)C)C(=O)N[C@@H](Cc2c[nH]c3ccccc23)C(=O)N1)[C@@H](C)O)[C@@H](C)O)[C@@H](C)CC)[C@@H](C)O)[C@@H](C)CC)C(=O)N[C@@H](CCCCN)C(=O)N[C@@H](CCCCN)C(=O)N[C@@H](CO)C(=O)O [IBP-CP24] (H-DCAWHLGELVWCTMTWEEWDKKIEEYTKKIEELIKKS-OH; disulfide 2-12; N-terminus and C-terminus assumed) | 0.946 | no significant in vitro cytotoxicity | no significant in vitro cytotoxicity | undetectable | 28.5 | 28.5 | about 2.5 log10 copies/mL | remained about the same | higher binding affinity with human IgG than IBP alone | no significant difference | no significant difference | 3430 | 52700 | 64.4 | 46.1 | non-cytotoxic concentration fold higher than IC50 for HIV-1 inhibition (MT-2 cells; 5 μM versus IC50, MT-2 and M7 cells): more than 800 fold; Kd (human IgG; read-out: Estimated Kd of binding to human IgG, ELISA on peptide-coated plate, one site specific binding fit, ± SE, three replicates per point): 0.177 µM; in vivo toxicity, overall (ICR mice; 10 and 100 mg/kg i.p.): no obvious in vivo toxicity; H&E stained sections of liver and kidneys (ICR mice; day 15 post-injection, versus PBS): no pathological abnormality; fold longer half-life than CP24 (in vivo; rhesus monkey plasma, 10 mg/kg i.v.): 26 fold; fold higher AUC 0-t than CP24 (in vivo; rhesus monkeys, 10 mg/kg i.v.): about 18 fold; Tmax (in vivo; rhesus monkeys, single i.v. 10 mg/kg, sandwich ELISA, CP24 n = 2, IBP-CP24 n = 3): 4 h |
| MTWEEWDKKIEEYTKKIEELIKKS [CP24, reference compound] | 1000 | no in vitro cytotoxicity | no in vitro cytotoxicity | high levels | 50 | 62.5 | about 3.6 log10 copies/mL | remained about the same | could not bind with human IgG | no significant difference | no significant difference | 180 | 23600 | 4.47 | 1.69 | Tmax (in vivo; [2]): 2 h |
